# “Also recorded” adds a separate entry of the source. Where a SMILES comes first, the peptide text is derived from it. Bridges are numbered along the chain shown (N, C = ends).
# Assays:
# [1] = molecular target: T1, NRP1 (Homo sapiens, UniProt O14786); test: Surface plasmon resonance (Biacore) binding of selected peptides to NRP1; conditions: 25° C., immobilized recombinant NRP1, read-out: ka
# T1 construct: Recombinant soluble NRP1 (sNRP1) protein containing His6 and c-Myc domain tags was synthesized in NIH-3T3 murine fibroblast cells; His6; c-Myc; made in house; host or cells: NIH-3T3 fibroblast cells, secreted into medium, purified on Ni-NTA
# T1 sequence (O14786 22-644 isoform O14786-2 limits assumed): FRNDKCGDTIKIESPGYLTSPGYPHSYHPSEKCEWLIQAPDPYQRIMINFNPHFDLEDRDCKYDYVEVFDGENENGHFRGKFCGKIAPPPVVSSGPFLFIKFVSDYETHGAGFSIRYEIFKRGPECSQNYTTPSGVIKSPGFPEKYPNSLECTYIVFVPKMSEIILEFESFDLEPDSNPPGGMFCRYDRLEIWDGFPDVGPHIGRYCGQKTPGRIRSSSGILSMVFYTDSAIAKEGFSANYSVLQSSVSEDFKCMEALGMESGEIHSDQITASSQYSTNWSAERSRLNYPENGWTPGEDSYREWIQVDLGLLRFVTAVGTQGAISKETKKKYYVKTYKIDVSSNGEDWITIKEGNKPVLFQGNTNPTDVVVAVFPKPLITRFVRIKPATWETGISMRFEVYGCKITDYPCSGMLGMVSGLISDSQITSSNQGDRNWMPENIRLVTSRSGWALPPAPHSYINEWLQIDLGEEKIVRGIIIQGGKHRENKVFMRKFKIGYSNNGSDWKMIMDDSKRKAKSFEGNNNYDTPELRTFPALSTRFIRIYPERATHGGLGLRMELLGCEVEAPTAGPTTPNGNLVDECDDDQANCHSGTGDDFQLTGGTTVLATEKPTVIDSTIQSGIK
# Procedure: (§1) The binding kinetics of selected peptides with NRP1 were tested using the surface plasmon resonance based measuring system (Biacore AB) at 25° C. Recombinant NRP1 was immobilized on CM5 sensor chips by amine coupling at 400 response units using the amine coupling kit (Biacore) according to the manufacturer's instructions. Binding was detected in resonance units after injecting various concentrations of peptide at a flow rate of 30 μL/min. Sensograms of association and dissociation were recorded and analyzed using BIAevaluation software 3.0 (Biacore AB).
# [2] = tested on: CL1-5 cells; test: Cytotoxicity / cell viability of peptide-treated cancer cells; format: cell-based, human; conditions: peptide treatment of cancer cells
# [3] = tested on: NRP1; test: NRP1 expression after siRNA transfection (Western blot); format: cell-based, human; conditions: CL1-5 cells transfected with siRNA
# [4] = tested on: CL1-5 cells; test: Scratch wound healing migration assay; format: cell-based, human; conditions: 24 h after scratch, 24 nmol/L siRNA
# Procedure: Cell migration was measured by the in vitro scratch wound healing assay (Tamura M, et al., Science 1998, 280: 1614-1617). CL1-5 cells were transfected with 24 nmol/L siRNA-1 in 12-well plates. Twenty-four hours after transfection, cells were scratched with a yellow pipette tip and photographed 18, 21, and 24 h after the scratch. The cell migration at 0, 18, 21, and 24 h was evaluated by counting cells that had migrated from the wound edge.
# [5] = tested on: PI3K; test: Phosphoinositide-3-kinase activity assay in CL1-5 cells; format: cell-based, human; conditions: 48 h after transfection, 1.3 nmol/L VEGF165, vs nonsilencing siRNA
# Procedure: Phosphoinositide-3-kinase (PI3K) activities were assayed as described previously (Lin M T, et al., J Biol Chem 2001, 276: 48997-49002) with some modifications. In brief, CL1-5 cell extracts were incubated with the antiphosphotyrosine antibody and then precipitated with protein A-Sepharose. The immunocomplexes were preincubated with phosphatidylinositol-4,5-P2 (Sigma), and the kinase reaction was initiated by adding 10 μCi of [γ-^32P]ATP in reaction buffer for 15 min. Phospholipids were separated by TLC and visualized by phosphorimaging.
# [6] = tested on: CL1-5 cells; test: In vitro invasion assay (modified Boyden chamber, Matrigel); format: cell-based, human; conditions: 48 h, Matrigel-coated Transwell
# Procedure: A modified Boyden chamber system was used to investigate the invasive capability of CL cells treated with selected peptides, sNRP1, and siRNA of NRP1 (Chu Y W, et al., Am J Respir Cell Mol Biol 1997, 17: 353-360). The polycarbonate membranes (containing 8-μm pores) of Transwell inserts were coated with Matrigel. The cells were suspended in RPMI 1640 containing 10% NuSerum (Life Science), and 2.5×10^4 cells were placed into the upper well of each chamber. After incubation for 48 h at 37° C., the Transwell membrane was fixed with methanol for 10 min at room temperature and stained with a 50 μg/mL solution of propidium iodide (Sigma) for 30 min at room temperature. The number of cells in each membrane was counted under a microscope at a magnification of ×50 using the Analytical Imaging Station software package (Imaging Research Inc.). Each sample was assayed in triplicate.
# [7] = tested on: Akt; test: VEGF165-induced Akt phosphorylation in CL1-5 cells (Western blot); format: cell-based, human; conditions: 1.3 nmol/L VEGF165, 10 nmol/L sNRP1
# [8] = tested on: VEGFR2; test: VEGF165-induced VEGFR2 phosphorylation in CL1-5 cells (immunoprecipitation / Western blot); format: cell-based, human
# Procedure: VEGFR2 phosphorylation was assessed as previously described (Soker S, et al., J Cell Biochem 2002, 85:357-368). Briefly, CL1-5 cells were treated with a mixture of hVEGF and sNRP1 for 30 min on ice and then at 37° C. for 7 min. Cell lysates were immunoprecipitated with anti-VEGFR2 antibodies. For Western blotting, the membranes were first probed with anti-Flk-1 antibodies and then reprobed with anti-phospho-VEGFR2 antibodies 2/3(pc460) after being stripped with deblotting buffer. In the antiangiogenesis assay, HUVECs were pretreated with peptides for 10 min followed by treatment with VEGF for 5 min, and the cells were then immediately extracted with lysis buffer. Activation of Flk-1/KDR was determined by immunoblotting cell extracts with anti-Flk-1 antibodies and then reprobing with anti-phospho-VEGFR2 antibodies (pTyr^1214) after the membranes had been stripped with deblotting buffer.
# [9] = molecular target: T2, human VEGF165 (Homo sapiens, UniProt P15692); test: Surface plasmon resonance binding of recombinant sNRP1 to VEGF165; conditions: read-out: average dissociation constant (KD) of human VEGF165 binding to sNRP1
# T2 construct: purchased PeproTech, Inc
# T2 sequence (P15692 27-191 isoform P15692-4): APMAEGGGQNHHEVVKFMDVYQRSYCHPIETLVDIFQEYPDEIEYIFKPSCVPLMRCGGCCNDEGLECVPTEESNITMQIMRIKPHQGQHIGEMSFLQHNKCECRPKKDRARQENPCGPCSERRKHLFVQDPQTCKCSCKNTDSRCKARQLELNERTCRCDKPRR
# Procedure: as §1
# [10] = tested on: CL1-5 cells; test: Filamentous actin staining (rhodamine-phalloidin); format: cell-based, human
# Procedure: For filamentous actin (F-actin) staining, cells were seeded on coverslips in 24-well plates and allowed to attach for 24 h in medium containing 10% FCS. The cells were fixed, washed, and permeabilized in 0.1% Triton-X. The cells were incubated for 30 min with 5 units/mL of rhodamine-conjugated phalloidin (Molecular Probe) and mounted using Fluor Save reagent (Calbiochem). The slides were analyzed using a Zeiss Axioplan 2 microscope.
Molecule,kon [1] [M⁻¹ s⁻¹],cytotoxicity / cell viability [2],NRP1 expression [3],invasion ability of CL1-5 cells (in words) [6],further results
"CSCC[C@@H]1NC(=O)[C@H](CCCNC(=N)N)NC(=O)[C@@H]2CCCN2C(=O)[C@H](CCCNC(=N)N)NC(=O)[C@H](CCCNC(=N)N)NC(=O)[C@@H](N)CSSC[C@@H](C(=O)O)NC(=O)[C@H]([C@@H](C)O)NC(=O)[C@H](CC(C)C)NC1=O [DG1, CRRPRMLTC] (H-CRRPRMLTC-OH; disulfide 1-9; N-terminus and C-terminus assumed)",1230,without affecting cell viability; also recorded: not cytotoxic,,,
"CC[C@H](C)[C@@H]1NC(=O)[C@H](CCCNC(=N)N)NC(=O)[C@H](CCCNC(=N)N)NC(=O)[C@H](CO)NC(=O)[C@H](CCCNC(=N)N)NC(=O)[C@@H](N)CSSC[C@@H](C(=O)O)NC(=O)[C@H](CC(C)C)NC(=O)[C@H](CCCNC(=N)N)NC1=O [DG2, CRSRRIRLC] (H-CRSRRIRLC-OH; disulfide 1-9; N-terminus and C-terminus assumed)",123 ± 24,not cytotoxic,,,
AACACCTAGTGGAGTGATAAA [siRNA-1],,,Significant suppression,decreased the invasion ability of CL1-5 cells in a dose-dependent manner,migration of CL1-5 cells [4]: significantly inhibited; VEGF165-induced PI3K activation [5]: decreased
AACAGCCTTGAATGCACTTAT [siRNA-2],,,Significant suppression,decreased the invasion ability of CL1-5 cells in a dose-dependent manner,
"sNRP1: Recombinant soluble NRP1 protein containing His6 and c-Myc domain tags, synthesized in NIH-3T3 cells",,,,dose-dependent decrease,VEGF165-induced phosphorylation of Akt at Ser473 [7]: decreased to less than one third; VEGF165-induced VEGFR2 activation ([8]; VEGF165 plus sNRP1): decreased by sNRP1 in a dose-dependent manner; VEGF165-induced VEGFR2 activation ([8]; high concentrations of sNRP1): totally blocked; Kd [9]: 0.125 µM; F-actin polymerization and filopodia formation [10]: inhibited F-actin polymerization and filopodia formation

# — US8450283B2, “Composition for treating cancer and use thereof” (National Taiwan University, priority 2008, dated 2013)
